Molecular target: T1, PTP1B (Homo sapiens, UniProt P18031)
T1 sequence (P18031 1-435): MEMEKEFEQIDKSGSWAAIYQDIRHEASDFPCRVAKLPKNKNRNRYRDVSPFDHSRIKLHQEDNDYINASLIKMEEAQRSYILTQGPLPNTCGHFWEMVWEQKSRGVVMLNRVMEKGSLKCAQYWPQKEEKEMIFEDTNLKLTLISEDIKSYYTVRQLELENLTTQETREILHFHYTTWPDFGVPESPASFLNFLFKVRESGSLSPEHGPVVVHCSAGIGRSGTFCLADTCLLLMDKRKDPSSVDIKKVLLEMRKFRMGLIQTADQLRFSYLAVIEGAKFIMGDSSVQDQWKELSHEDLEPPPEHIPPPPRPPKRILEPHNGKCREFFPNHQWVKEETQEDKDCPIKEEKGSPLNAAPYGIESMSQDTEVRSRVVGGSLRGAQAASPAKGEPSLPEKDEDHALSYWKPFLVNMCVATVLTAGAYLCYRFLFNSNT
Experiment: p-NPP dephosphorylation end-point assay at […] nm, […] compound
Assay type: biochemical
Details: read-out: % inhibition at 10 μmol/L

inhibition at 10 µM: 19.6%
SMILES: COc1c(O)ccc(/C=C/C(=O)O)c1SC[C@@H](O)C(=O)O [compound 1, (S)-2-(2-carboxyl-2-hydroxyethylthio)-ferulic acid]

From publication PMC6147803 (Acta Pharmaceutica Sinica. B, 2018)
